# Experimental data from PMC5558686 (British Journal of Cancer, 2017).
# Counter-ions that a name gives are not always drawn.
# Tests used:
# UACC 903 cells [1] = test: Cholesterol localisation assay; format: cell-based; conditions: after 6 h
# UACC 903 cells [2] = test: Co-treatment with apoptosome inhibitor NS3694, viability; format: cell-based; conditions: 50 μMol/l NS-3694 co-treatment
# [3] = test system: UACC 903 xenografted tumours; test: Xenografted melanoma tumour growth; format: in vivo, athymic-Foxn1−/− (nude) mice; conditions: for reduction of tumour growth / tumour inhibition: oral administration, UACC 903 xenograft, day 22
# [4] = test system: UACC 903, 1205 Lu and A2058 tumour development; test: Xenografted melanoma tumour growth; format: in vivo, athymic-Foxn1−/− (nude) mice; conditions: for tumour weights lower than control groups: end of treatment, Figure 2E and H (UACC 903 and A2058); for decrease in tumour development: oral, perphenazine 50 mg kg^−1 or fluphenazine 25 mg kg^−1 at 4-day intervals
# [5] = CNS related sedation, video surveillance; format: in vivo, Swiss Webster mice; conditions: for onset of sedation after oral administration / persistence of sedation: xenograft mice, oral
# [6] = Body weight of treated mice; format: in vivo; conditions: for loss of body weight: xenograft mice, 2 days after oral drug treatments
# UACC 903 cells [7] = test: Western blot of autophagic flux markers LC3B and p62/SQSTM1; format: cell-based
# [8] = test system: BAX-knockout HCT116 cells; test: Viability of BAX-knockout HCT116 cells; format: cell-based, human; conditions: 24 h, increasing concentrations
# Serum toxicity markers = format: in vivo, mice; conditions: serum at end of oral treatment
# [9] = H&E histology of major organs; format: in vivo, mice; conditions: oral treatment
# UACC 903 cells [10] = test: Mitochondrial membrane potential; format: cell-based
# prostate cancer = conditions: phase-2; ref Clinical Trial Id: NCT00417274; cited from earlier work
# UACC 903 cells [11] = test: Co-treatment with necrosis inhibitors IM-54 / Necrostatin-5, viability; format: cell-based; conditions: IM-54 and Necrostatin-5
# UACC 903 cells [12] = test: Caspase-dependence, z-VAD-fmk pre-treatment, viability; format: cell-based; conditions: z-VAD-fmk 20 μmol l^−1, 1 h pre-treatment; TRAIL 50 ng ml^−1
molecule,measurement,setting,value
"CCN(CC)CCO[C@H]1CC[C@@]2(C)C(=CC[C@@H]3[C@@H]2CC[C@]2(C)C(=O)CC[C@@H]32)C1.Cl [U18666A, U-18666A]",intracellular cholesterol accumulation (Filipin-III staining),UACC 903 cells [1],intracellular cholesterol accumulation
"OCCN1CCN(CCC=C2c3ccccc3Sc3ccc(C(F)(F)F)cc32)CC1 [Flupentixol, Flupenthixol diHCL]",protection from cell death by NS-3694,UACC 903 cells [2],partially protected
"CNCCCN1c2ccccc2CCc2ccccc21 [Desipramine, Desipramine HCL]",reduction of tumour growth / tumour inhibition,[3],30%
OCCN1CCN(CCCN2c3ccccc3Sc3ccc(C(F)(F)F)cc32)CC1 [Fluphenazine],tumour weights lower than control groups,[4],40–60%
same,decrease in tumour development,[4],40–60%
same,onset of sedation after oral administration,[5],Thirty to sixty minutes
same,persistence of sedation,[5],> 24 h
same,loss of body weight,[6],10%
same,LC3B and p62 protein levels (western blot),UACC 903 cells [7],dose-dependent accumulation of LC3B and p62 proteins
same,protection from cell death by NS-3694,UACC 903 cells [2],partially protected
"CNCCC=C1c2ccccc2CCc2ccccc21 [Nortriptyline, Nortriptyline HCL]",reduction of tumour growth / tumour inhibition,[3],50%
same,LC3B and p62 protein levels (western blot),UACC 903 cells [7],dose-dependent accumulation of LC3B and p62 proteins
OCCN1CCN(CCCN2c3ccccc3Sc3ccc(Cl)cc32)CC1 [Perphenazine],sensitivity of BAX-knockout compared with wild-type HCT116 cells,[8],more resistant
same,inhibition of UACC 903 tumour development by the free drug,"[3]; 12.5 or 25 mg kg^−1, orally every other day",ineffective
same,reduction of tumour growth / tumour inhibition,[3],60%
same,mitotic figures in H&E stained tumour sections,[3]; tumours from treated animals,significant decrease in mitotic figure numbers
same,tumour weights lower than control groups,[4],40–60%
same,decrease in tumour development,[4],40–60%
same,total bilirubin levels compared to controls,Serum toxicity markers,significantly higher
same,histological analysis of vital organs,[9],no alteration in cell morphology or tissue architecture
same,% of time mice awake in 24 h period,[5]; 15 mg kg^−1 oral,slightly greater sedative effect compared to liposomal treatment
same,% of time mice awake in 24 h period,[5]; 50 mg kg^−1 oral,6%
same,onset of sedation after oral administration,[5],Thirty to sixty minutes
same,persistence of sedation,[5],> 24 h
same,body weight loss,"[6]; Swiss Webster mice, following treatment",10%
same,loss of body weight,[6],10%
same,LC3B and p62 protein levels (western blot),UACC 903 cells [7],dose-dependent accumulation of LC3B and p62 proteins
same,ΔΨmt − (cells that lost MMP),UACC 903 cells [10]; 6 h 10 μM,19%
same,ΔΨmt − (cells that lost MMP),UACC 903 cells [10]; 6 h 15 μM,28%
same,protection from cell death by NS-3694,UACC 903 cells [2],partially protected
"CCN(CC)CCCC(C)Nc1c2ccc(Cl)cc2nc2ccc(OC)cc12 (stereo not shown) [quinacrine, Mepacrine (Quinacrine) DiHCL]",patients with stabilisation or decrease in the rate of disease progression,prostate cancer,~50 % of the patients
CC(C)c1ccc2c(c1)CC[C@H]1[C@](C)(CN)CCC[C@]21C [Leelamine],intracellular cholesterol accumulation (Filipin-III staining),UACC 903 cells [1],intracellular cholesterol accumulation
same,protection from cell death by necrosis inhibitors,UACC 903 cells [11],"neither of the two necrosis inhibitors, IM-54 and Necrostatin-5, protected"
"TRAIL: positive control for caspase-dependent cell death (50 ng ml^−1) (protein, UniProt P50591 1-281, looked up) Tumor necrosis factor ligand …: MAMMEVQGGPSLGQTCVLIVIFTVLLQSLCVAVTYVYFTNELKQMQDKYSKSGIACFLKEDDSYWDPNDEESMNSPCWQVKWQLRQLVRKMILRTSEETISTVQEKQQNISPLVRERGPQRVAAHITGTRGRSNTLSSPNSKNEKALGRKINSWESSRSGHSFLSNLHLRNGELVIHEKGFYYIYSQTYFRFQEEIKENTKNDKQMVQYIYKYTSYPDPILLMKSARNSCWSKDAEYGLYSIYQGGIFELKENDRIFVSVTNEHLIDMDHEASFFGAFLVG",effect of pan-caspase inhibitor z-VAD-fmk on cell death,UACC 903 cells [12],protected cells from apoptosis
